The structures appear in SMILES notation.

Data set [1] in a line: Osmotic pressure, vapor pressure-type osmometer. The conditions noted are these: 10 wt % in Water. It counts as physicochemical. As for the experimental part:
A vapor pressure-type osmometer (VAPRO 5600; Wescor, Inc., Logan, UT, USA) was used, and an osmotic pressure was measured in a 10 mL standard chamber (room temperature: 25° C., apparatus sensor temperature: 33° C., sample volume: 10 μL).

The test system of data set [2] is Human kidney cells (BOSC). Put plainly: Cryopreservation test, survival rate of BOSC cells. It counts as cell-based. The conditions noted are these: 10 wt % in Water; after cryopreservation. On the procedure:
In the case of adherent cells, the cells to be frozen were treated with trypsin and recovered by centrifugation. In the case of floating cells, the cells to be frozen were recovered by centrifugation. The cells of each type were diluted with Dulbecco's modified Eagle medium (DMEM), and the cell concentration was measured. In the present specification, the DMEM solution is also simply referred to as a medium.
Subsequently, each dilution was dispensed at 1 mL/tube to 1.5 mL tubes, and the cells were suspended in a cryopreservative solution containing 100 μL of a zwitterion polymer solution and frozen at a cooling temperature of −85° C. and a cooling rate of −1° C./min by a cell freezing container Mr. Frosty®. In the present Examples, the commercially available cryopreservative solution used was CultureSure® (manufactured by FUJIFILM Wako Pure Chemical Corp.) unless otherwise specified. The cryopreservation time was set to 48 hours. Then, the cells were thawed at a tube temperature of 37° C. and used in live cell counting.
The cells were thawed by the addition of 1 mL of a medium to the cryopreservation vial at 37° C. and centrifuged to remove a supernatant. The cells thus obtained by centrifugation were resuspended in a medium, followed by live cell counting.

In another data set the test system is mouse fibroblasts (mNF). The data set can be described thus: Cryopreservation test, survival rate of mNF cells. It counts as cell-based. The note with it: 10 wt % in Water; after cryopreservation. As for the experimental part:
In the case of adherent cells, the cells to be frozen were treated with trypsin and recovered by centrifugation. In the case of floating cells, the cells to be frozen were recovered by centrifugation. The cells of each type were diluted with Dulbecco's modified Eagle medium (DMEM), and the cell concentration was measured. In the present specification, the DMEM solution is also simply referred to as a medium. […] Frosty®. In the present Examples, the commercially available cryopreservative solution used was CultureSure® (manufactured by FUJIFILM Wako Pure Chemical Corp.) unless otherwise specified. The cryopreservation time was set to 48 hours. Then, the cells were thawed at a tube temperature of 37° C. and used in live cell counting. The cells were thawed by the addition of 1 mL of a medium to the cryopreservation vial at 37° C. and centrifuged to remove a supernatant. The cells thus obtained by centrifugation were resuspended in a medium, followed by live cell counting.

The compound `C=Cn1cc[n+](CCCC(=O)[O-])c1` [VimC3C] displayed an Osmotic pressure in data set [1] of 860 mOsm/kg. In addition, the “Survival rate (BOSC)” value in data set [2] is 0.15. In addition, the “Survival rate (mNF)” value in the data set with mouse fibroblasts (mNF) is on record as 0.42.

The values are drawn from patent publication US20260176393A1, “PRESERVATIVE COMPOSITION FOR BIOLOGICAL SAMPLES” (KANAZAWA UNIVERSITY, priority 2022, published 2026).
